Data set [1] concerns M. tb H37Rv-GFP. In words: microbe, parasite or virus in culture. In kind it is cell-based, Mycobacterium tuberculosis.
For data set [2], the system named is M. tb H37Rv-GFP replicating inside Raw264.7 macrophages. As to the kind of experiment: microbe, parasite or virus in culture. Format: cell-based, Mycobacterium tuberculosis. To be noted: for MIC50: read-out: Intracellular macrophage growth MIC50.
Another data set in a line: in vitro. The settings on record: mouse.
Data set [3] has as its system M. tb. Also noted: method as in earlier work. The settings on record: combined application with vancomycin; ref 62 (Orlistat), 28 (Lalistat); cited from earlier work.
For data set [4], the system named is M. tb. Also noted: method as in PMID 23029536, PMID 27503643, doi:10.1039/C6MD00231E. The settings on record: M. tb growth, inhibitor alone; cited from earlier work.
The test system of data set [5] is M. tb H37Rv-GFP replicating inside Raw264.7 macrophages. Also noted: method as in PMID 19876393. To be noted: Raw264.7 macrophages infected with M. tb H37Rv-GFP; cited from earlier work.
The test system of data set [6] is M. tb H37Rv-GFP. Also noted: method as in PMID 19876393. The settings on record: M. tb H37Rv-GFP in broth medium; cited from earlier work.
In data set [7] the test system is Raw264.7 murine macrophages. Also noted: method as in PMID 19876393. The settings on record: 50% host cell toxicity, Raw264.7 macrophages, read-out: Intracellular macrophage growth CC50, cited from earlier work.
Data set [8] relates to M. tb mc^26230-empty vector. As to the kind of experiment: REMA, empty vector strain. In kind it is cell-based, Mycobacterium tuberculosis. To be noted: Mycobacterium tuberculosis, REMA.
Data set [9] deals with serine/cysteine enzymes in M. tb mc^26230 lysate. In words: Competitive ABPP labelling/enrichment with Desthiobiotin-FP (and TAMRA-FP), LC-MS/MS target identification. In kind it is binding, Mycobacterium tuberculosis. To be noted: lysate pre-incubated with 580 µM inhibitor, 37 °C, 90 min.
A further data set deals with M. tb mc^26230 WT. As to the kind of experiment: microbe, parasite or virus in culture. Format: cell-based. To be noted: REMA.
Where [10] appears, read: Mycobacterium tuberculosis, H37RV, 120 h, read-out: Extracellular growth MIC50.
[11] abbreviates: Mycobacterium tuberculosis, H37RV, 120 h.
[12] abbreviates: read-out: Extracellular growth MIC50.

Data on 18 compounds can be found in paper PMC5603573, “Cyclipostins and Cyclophostin analogs as promising compounds in the fight against tuberculosis” (Scientific Reports, 2017).

In brackets after ≈: the same amount, converted by molar mass. Where two headings read alike, the source gives them in different places. A value given as a limit tells only on which side of the number the result lay.

Take `CCCCCCCCCC[C@@H]1CC[P@](=O)(OC)OC(C)=C1C(=O)OC` (relative stereo) [CyC 7(α)]: the figures for the MIC50 (in the data set with M. tb H37Rv-GFP [1] (setting [10]); in [2] (setting [11])) were 92.6 µM (≈ 34.7 µg/mL) and 4.5 µM (≈ 1.69 µg/mL), respectively. The CC50 in the data set “in vitro” was greater than 100 µM.
Turning to Lalistat, in the data set with M. tb [3], the MIC – broadly, the lowest concentration found to suppress growth – was 6 to 12 µM and the MIC drop is 4 fold. Besides, the MIC in the data set with M. tb [4] is 25 to 50 µM.
Consider `CCCCCCCCCCCCCCCCCCOP1(=O)CCCC(C(=O)OC)=C(C)O1` (centres unmarked) [CyC 12], for which the “antibacterial activity against M. tb (in words)” value (“antibacterial activity” below) in the data set with M. tb H37Rv-GFP [1] is listed as “non-active”.
The same measure, in the same setting: the entry for `CCCCCCCCCCCCCCCCOP1(=O)OC(C)=C(C(=O)OC)CCC1(F)F` (centres unmarked) [CyC 14] is “non-active”.
For MmPPOX, the MIC with M. tb [4] was 25 to 50 µM.
Regarding `CCCCCCCCCCCC[C@@H]1CC[P@](=O)(OC)OC(C)=C1C(=O)OC` (relative stereo) [CyC 8(α)], the figures for the MIC50 in data set [2] (setting [11]) and in data set [2] were 3 to 4 µM (≈ 1.21 to 1.61 µg/mL) and 4.0 µM (≈ 1.61 µg/mL), respectively. In the data set “in vitro”, this compound showed a CC50 greater than 100 µM.
Turning to `CCCCCCCCCCCCCCCCOP1(=O)CCC(CCCCCCCCCC)C(C(=O)OC)=C(C)O1` (centres unmarked) [CyC 13], in the data set with M. tb H37Rv-GFP [1], the “antibacterial activity” value is “did not yield any significant antibacterial activity”.
Consider `CCCCCCCCCCCCCCCCOP1(=O)CCCC(C(=O)OC)=C(C)O1` (centres unmarked) [CyC 11], for which the “antibacterial activity” value with M. tb H37Rv-GFP [1] is recorded as “non-active”.
For `CCCCCCCCCCCCC1CCP(=O)(OC)OC(C)=C1C(=O)OC` (stereo not drawn) [CyC 8(β)], the MIC50 in the data set on M. tb H37Rv-GFP [1] (setting [10]) was greater than 100 µM; in data set [2] (setting [11]), 11.7 µM (≈ 4.71 µg/mL). The CC50 in the data set “in vitro” is greater than 20 µM.
`CCCCCCCCCCC1CCP(=O)(OC)OC(C)=C1C(=O)OC` (stereo not drawn) [CyC 7(β)]: the MIC50 is 16 to 40 µM (≈ 5.99 to 15 µg/mL) in the data set on M. tb H37Rv-GFP [1] (setting [10]), 16.6 µM (≈ 6.22 µg/mL) in the data set on M. tb H37Rv-GFP [1] (setting [12]), 3 to 4 µM (≈ 1.12 to 1.5 µg/mL) in data set [2] (setting [11]) and 3.1 µM (≈ 1.16 µg/mL) in data set [2]. This compound also came in with a CC50 in the data set “in vitro” greater than 100 µM.
Take `NNC(=O)c1ccncc1` [Isoniazid (INH), Isoniazid]: the “Intracellular macrophage growth MIC50” value in data set [5] is 1.2 µM. Further, in the data set with M. tb H37Rv-GFP [6], the “Extracellular growth MIC50” value is 1.2 µM. For the same compound, the CC50 in data set [7] is greater than 150 µM.
For `CCCCCCCCCCCCCCCCO[P@]1(=O)OC[C@@H]2COC(=O)C2=C(C)O1` [CyC 18(α)], in the data set on M. tb H37Rv-GFP [1] (setting [10]), the MIC50 is 24.4 µM (≈ 10.8 µg/mL). Also, in data set [2], the “Intracellular macrophage growth MIC50” value is “No effect”. The CC50 in “in vitro” was greater than 100 µM.
As for `CO[C@H]1/C=C/O[C@@]2(C)Oc3c(C)c(O)c4c(O)c(c(/C=N/N5CCN(C)CC5)c(O)c4c3C2=O)NC(=O)/C(C)=C\C=C\[C@H](C)[C@H](O)[C@@H](C)[C@@H](O)[C@@H](C)[C@H](OC(C)=O)[C@@H]1C` [Rifampicin (RIF), Rifampicin], the “Intracellular macrophage growth MIC50” value in [5] is on record as 2.9 µM. The “Extracellular growth MIC50” value in the data set on M. tb H37Rv-GFP [6] was 0.01 µM. The CC50 in data set [7] was 24 µM.
`CCCCCC1CCP(=O)(OC)OC(C)=C1C(=O)OC` (stereo not drawn) [CyC 6(β)]: the “Extracellular growth MIC50” value with M. tb H37Rv-GFP [1] is recorded as “No effect”. For the same compound, in [2] (setting [11]), the MIC50 was 12.6 µM (≈ 3.83 µg/mL). In the data set “in vitro”, this compound had a CC50 greater than 100 µM.
For `CCCCCCCCCCCCCCCCO[P@]1(=O)OC[C@H]2COC(=O)C2=C(C)O1` [CyC 18(β), Cyclipostins P], the MIC50 with M. tb H37Rv-GFP [1] (setting [10]) amounted to 1.7 µM (≈ 0.756 µg/mL). The “Intracellular macrophage growth MIC50” value in [2] is reported as “No effect”. Further, the CC50 in the data set “in vitro” was greater than 100 µM.
`CCCCCCCCCCC[C@@H](C[C@@H]1OC(=O)[C@H]1CCCCCC)OC(=O)[C@H](CC(C)C)NC=O` [Orlistat]: in the data set with M. tb [3], the minimum inhibitory concentration (MIC) is recorded as ~ 6 µM and the MIC drop is 16 fold. For the same compound, the MIC with M. tb [4] was 25 to 50 µM.
`CCc1cc(C(N)=S)ccn1` [Ethionamide (ETO), Ethionamide]: the “Intracellular macrophage growth MIC50” value in data set [5] is on record as 6.0 µM. Further, the “Extracellular growth MIC50” value in the data set with M. tb H37Rv-GFP [6] was 6.0 µM. Besides, the CC50 in data set [7] (listed as ethionamide) was no less than 120 µM; in data set [7], 120 µM.
For the compound `CCCCCCCCCCCCCCCCOP1(=O)OCCC(C(=O)OC)=C(C)O1` (centres unmarked) [CyC 17], the MIC50 was 0.5 µM (≈ 0.223 µg/mL) with M. tb H37Rv-GFP [1] (setting [10]); roughly 0.5 µM (≈ 0.223 µg/mL) in the data set on M. tb H37Rv-GFP [1] (Mycobacterium tuberculosis, H37RV, read-out: Extracellular MIC50); 0.50 µM (≈ 0.223 µg/mL) in the data set with M. tb H37Rv-GFP [1] (setting [12]); 0.52 ± 0.01 µM (≈ 0.232 µg/mL) in data set [8]; 0.55 ± 0.023 µM (≈ 0.246 µg/mL) in the data set on M. tb mc^26230 WT (Mycobacterium tuberculosis, read-out: MIC50); 0.55 ± 0.023 µM (≈ 0.246 µg/mL) against M. tb mc^26230 WT. In [2], the “Intracellular macrophage growth MIC50” value is “No effect”. Also, the CC50 in the data set “in vitro” is greater than 100 µM. Besides, in [9], the “Effect of pre-treatment on Desthiobiotin-FP labelled bands (SDS-PAGE)” value is “decrease in intensity of bands 1, 2 and 8; or disapearance of bands 3-7 and 9”.
